The text below walks through data of paper PMC12251226, “Comparison of in silico predictions of action potential duration in response to inhibition of IKr and ICaL with new human ex vivo recordings” (PLOS Computational Biology, 2025).

Read-outs that look alike come from different tables or passages of the source.

The target of data set [1] is T1, CaV1.2 channels (Homo sapiens, UniProt Q13936). As to conditions: CaV1.2, CHO cells, Pharm protocol.
Description: (§1) Drug effects were modelled as simple pore block, using the Hill equation [37] to characterise it with a half-inhibitory concentration ( IC50 ) and a Hill coefficient (h).
(§2) For IKr inhibition, two voltage-clamp protocols, denoted “ IKr CiPA” [38] and “ IKr Pharm”, were used. Similarly, two voltage-clamp protocols were used to measure the drug-induced ICaL inhibition (“ ICaL CiPA” [20] and “ ICaL Pharm”). Thereby, two datasets for IC50 and h for IKr and ICaL were obtained, denoted the CiPA and Pharm datasets.
(§3) The CHO-h CaV1.2/β2/α2δ cell line was purchased from ChanTest (USA, Catalog
(§4) 54 #CT6004). Vials with cryopreserved cells were thawed at 37°C, washed with the pre-
(§5) 55 warmed IMDM cell culture medium (Gibco Life Technologies, USA) and re-suspended in
56 the extracellular solution.
(§6) 57 For the hERG assay the extracellular solution contained (in mM): NaCl 80; KCl 4;
(§7) 58 CaCl2 1; MgCl2 1; NMDG 40; HEPES 10; sorbitol 40; glucose 5; pH 7.2–7.4 with NaOH,
(§8) 59 osmolarity 290-330 mOsm and the internal solution contained (in mM): KCl, 10; KF, 100;
(§9) 61 For the L-type CaV1.2 assay the extracellular solution contained (in mM): NaCl 80; KCl 4;
(§10) 63 osmolarity 290-330 mOsm and the internal solution contained (in mM): KCl, 10; KF, 100;
(§11) 64 NaCl, 5; HEPES, 10; EGTA, 10; Na-ATP, 4; Na-GTP, 0.1; pH = 7.0–7.4 with KOH,
(§12) 67 The recording of the currents was performed using automated patch clamp system
(§13) 69 experimental procedure described below. On the day of the experiment, an aliquot of
(§14) 70 the cell suspension in a 2:1 mixture of the HBSS and external solution was placed in the
(§15) 71 Cellhotel. The cells were subsequently added into the 384-well sealchip where the currents
(§16) 72 were recorded in single cells with the patch-voltage-clamp technique in the whole-cell
(§17) 75 and the digital 3 kHz Lanczos filter and were digitized at 5 kHz. Series resistance was
(§18) 76 typically 2–9 MΩ and is compensated by 80%. The reported current amplitudes represent
(§19) 77 the maximal amplitude of a peak current.
(§20) 79 The voltage-step protocols used to measure the CaV1.2 inhibition by drugs are shown in
(§21) In the Roche in-house protocol (Pharm dataset), the cells were held at a resting
(§22) 81 potential of−90 mV, where the baseline current amplitude was recorded. The CaV1.2
(§23) 83 where the peak current was recorded. Once the recorded peak and baseline currents were
(§24) 84 stabilised, the amplitude and kinetics of the ICaV1.2 were recorded for 3–5 minutes without
(§25) 85 drug. Then, after each drug addition, the activity of the cells was recorded during 3
(§26) 87 In the CiPA protocol, cells were held at a resting potential of−80 mV, where the
(§27) 88 baseline current was recorded. Then a stimulus 40 ms step of voltage at 0 mV was applied
(§28) 89 to record the peak current, with a 0.1 Hz frequency. Then the voltage was held at +30 mV
(§29) In the Roche in-house protocol, the resting voltage was set to −80 mV.
In data set [2] the target is T1, CaV1.2 channels. Conditions: CaV1.2, CHO cells, CiPA protocol.
Description: as §1, §2, §3, §4, §5
56 the extracellular solution.
as §6, §7, §8, §9, §10, §11, §12, §13, §14, §15, §16, §17, §18, §19, §20, §21, §22, §23, §24, §25, §26, §27
(§30) 89 to record the peak current, with a 0.1 Hz frequency. Then the voltage was held at +30 mV […]
In data set [3] the test system is adult human ventricular trabeculae. Put plainly: Ex vivo sharp electrode action potential recording (APD90) in ventricular trabeculae, 1 Hz pacing. As to conditions: for Change in APD90 (in words): over the tested concentrations; for Mean ΔAPD90 (SEM): 25 min steady 1 Hz pacing.
The target in the next data set is CaV1.2 (ICaL) (Homo sapiens, UniProt Q13936). In words: in vitro. As to conditions: CHO cells expressing human CaV1.2/β2/α2δ.
Data set [4] concerns the target T2, hERG channels (Homo sapiens, UniProt Q12809). Put plainly: Automated patch clamp, IKr CiPA protocol, CHO cells. It counts as cell-based. Set-up: expressed in transfected cells; host or cells: CHO (crelox). A general note: In patch-clamp work, channel activity is measured electrically.
A further data set has as its target hERG (IKr) (Homo sapiens, UniProt Q12809). Put plainly: Automated patch clamp, IKr Pharm (Roche in-house) protocol, CHO cells. As to conditions: human.
Another data set concerns hERG. As to conditions: cited from earlier work.
Data set [5] addresses T1, CaV1.2 channels. Put plainly: cell-based.
Description: as §1, §2, §3, §4, §5
56 the extracellular solution.
as §6, §7, §8, §9, §10, §11, §12, §13, §14, §15, §16, §17, §18, §19, §20, §21, §22, §23, §24, §25, §26, §27, §28, §29
Data set [6] concerns the target T1, CaV1.2 channels. Put plainly: cell-based. This is another data set of the same source.
Description: as §1, §2, §3, §4, §5
56 the extracellular solution.
as §6, §7, §8, §9, §10, §11, §12, §13, §14, §15, §16, §17, §18, §19, §20, §21, §22, §23, §24, §25, §26, §27, §30
For data set [7], the target named is T2, hERG channels. In words: Automated patch clamp, IKr Pharm (Roche in-house) protocol, CHO cells. Conditions: hERG, CHO cells, Pharm protocol.

T1 sequence (Q13936 whole entry): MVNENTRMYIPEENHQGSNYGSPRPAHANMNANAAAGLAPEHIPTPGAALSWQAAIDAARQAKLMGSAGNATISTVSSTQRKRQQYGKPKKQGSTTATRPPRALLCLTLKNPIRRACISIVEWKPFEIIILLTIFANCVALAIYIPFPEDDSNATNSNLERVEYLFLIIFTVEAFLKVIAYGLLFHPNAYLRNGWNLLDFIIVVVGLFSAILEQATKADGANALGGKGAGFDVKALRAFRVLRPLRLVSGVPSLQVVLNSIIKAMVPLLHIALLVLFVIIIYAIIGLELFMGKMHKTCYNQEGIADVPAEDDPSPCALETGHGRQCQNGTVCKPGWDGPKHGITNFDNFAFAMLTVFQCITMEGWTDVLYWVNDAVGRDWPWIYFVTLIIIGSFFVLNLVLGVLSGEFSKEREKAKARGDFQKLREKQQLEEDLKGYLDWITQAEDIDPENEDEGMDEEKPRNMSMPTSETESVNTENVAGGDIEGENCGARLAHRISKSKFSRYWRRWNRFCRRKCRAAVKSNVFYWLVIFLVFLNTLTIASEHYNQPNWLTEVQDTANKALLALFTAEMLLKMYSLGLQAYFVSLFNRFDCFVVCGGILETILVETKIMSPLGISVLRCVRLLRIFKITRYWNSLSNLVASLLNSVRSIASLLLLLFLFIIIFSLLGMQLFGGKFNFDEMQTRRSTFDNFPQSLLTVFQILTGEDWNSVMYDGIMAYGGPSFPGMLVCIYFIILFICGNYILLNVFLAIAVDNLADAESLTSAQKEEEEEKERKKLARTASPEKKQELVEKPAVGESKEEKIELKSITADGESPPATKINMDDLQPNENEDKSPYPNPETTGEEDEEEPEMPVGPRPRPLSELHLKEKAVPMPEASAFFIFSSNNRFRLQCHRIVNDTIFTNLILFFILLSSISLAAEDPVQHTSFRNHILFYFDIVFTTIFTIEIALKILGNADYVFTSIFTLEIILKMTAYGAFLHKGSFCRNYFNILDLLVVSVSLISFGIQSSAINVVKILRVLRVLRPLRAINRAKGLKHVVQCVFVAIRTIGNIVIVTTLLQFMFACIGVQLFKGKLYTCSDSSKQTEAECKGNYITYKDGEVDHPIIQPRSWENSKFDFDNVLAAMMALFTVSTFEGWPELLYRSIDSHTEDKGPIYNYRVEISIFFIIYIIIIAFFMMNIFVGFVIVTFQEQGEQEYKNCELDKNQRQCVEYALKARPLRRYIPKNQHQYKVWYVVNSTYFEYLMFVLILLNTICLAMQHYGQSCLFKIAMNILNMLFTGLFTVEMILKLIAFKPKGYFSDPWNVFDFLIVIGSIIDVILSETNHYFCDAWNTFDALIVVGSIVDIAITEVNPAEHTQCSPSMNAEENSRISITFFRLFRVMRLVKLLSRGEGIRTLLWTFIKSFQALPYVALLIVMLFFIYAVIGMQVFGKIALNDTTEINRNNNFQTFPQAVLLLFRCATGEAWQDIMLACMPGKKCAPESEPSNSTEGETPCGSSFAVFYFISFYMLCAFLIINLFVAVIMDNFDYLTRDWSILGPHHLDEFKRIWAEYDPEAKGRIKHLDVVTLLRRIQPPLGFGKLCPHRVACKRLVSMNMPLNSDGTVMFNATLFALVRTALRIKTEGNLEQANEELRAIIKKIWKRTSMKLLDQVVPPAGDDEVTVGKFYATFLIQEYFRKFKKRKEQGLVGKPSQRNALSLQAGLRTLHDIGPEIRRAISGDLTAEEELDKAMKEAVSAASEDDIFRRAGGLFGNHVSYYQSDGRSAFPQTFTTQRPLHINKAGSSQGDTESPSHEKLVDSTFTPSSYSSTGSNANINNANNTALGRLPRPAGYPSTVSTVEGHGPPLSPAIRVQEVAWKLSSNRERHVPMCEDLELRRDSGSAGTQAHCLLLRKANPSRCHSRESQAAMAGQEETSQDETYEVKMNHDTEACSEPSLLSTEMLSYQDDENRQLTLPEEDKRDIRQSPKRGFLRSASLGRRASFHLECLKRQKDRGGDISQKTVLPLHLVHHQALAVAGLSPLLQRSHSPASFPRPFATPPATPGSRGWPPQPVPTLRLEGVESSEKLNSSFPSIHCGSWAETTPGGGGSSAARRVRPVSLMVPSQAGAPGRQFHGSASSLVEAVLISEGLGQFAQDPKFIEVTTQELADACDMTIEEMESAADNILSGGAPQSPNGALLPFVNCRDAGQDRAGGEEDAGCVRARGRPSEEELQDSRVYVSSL
T1 sequence (Q08289 whole entry partner): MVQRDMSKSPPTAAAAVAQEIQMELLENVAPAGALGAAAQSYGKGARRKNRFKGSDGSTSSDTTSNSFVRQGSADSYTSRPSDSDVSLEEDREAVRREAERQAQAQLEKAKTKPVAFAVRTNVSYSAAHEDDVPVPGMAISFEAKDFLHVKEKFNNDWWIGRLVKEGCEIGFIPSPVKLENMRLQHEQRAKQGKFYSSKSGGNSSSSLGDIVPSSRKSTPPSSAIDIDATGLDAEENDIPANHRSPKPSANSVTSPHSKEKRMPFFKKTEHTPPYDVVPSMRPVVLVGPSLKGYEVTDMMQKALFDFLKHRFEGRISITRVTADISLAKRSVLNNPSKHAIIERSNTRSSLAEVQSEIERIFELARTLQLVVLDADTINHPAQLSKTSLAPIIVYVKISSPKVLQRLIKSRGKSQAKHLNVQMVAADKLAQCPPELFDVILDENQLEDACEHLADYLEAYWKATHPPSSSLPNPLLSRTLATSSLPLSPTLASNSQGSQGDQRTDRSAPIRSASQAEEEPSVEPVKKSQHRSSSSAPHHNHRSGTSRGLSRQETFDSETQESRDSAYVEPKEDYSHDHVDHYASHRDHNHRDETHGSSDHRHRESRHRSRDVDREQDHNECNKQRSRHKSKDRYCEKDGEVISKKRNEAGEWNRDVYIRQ
T1 sequence (P54289 25-956 partner limits assumed): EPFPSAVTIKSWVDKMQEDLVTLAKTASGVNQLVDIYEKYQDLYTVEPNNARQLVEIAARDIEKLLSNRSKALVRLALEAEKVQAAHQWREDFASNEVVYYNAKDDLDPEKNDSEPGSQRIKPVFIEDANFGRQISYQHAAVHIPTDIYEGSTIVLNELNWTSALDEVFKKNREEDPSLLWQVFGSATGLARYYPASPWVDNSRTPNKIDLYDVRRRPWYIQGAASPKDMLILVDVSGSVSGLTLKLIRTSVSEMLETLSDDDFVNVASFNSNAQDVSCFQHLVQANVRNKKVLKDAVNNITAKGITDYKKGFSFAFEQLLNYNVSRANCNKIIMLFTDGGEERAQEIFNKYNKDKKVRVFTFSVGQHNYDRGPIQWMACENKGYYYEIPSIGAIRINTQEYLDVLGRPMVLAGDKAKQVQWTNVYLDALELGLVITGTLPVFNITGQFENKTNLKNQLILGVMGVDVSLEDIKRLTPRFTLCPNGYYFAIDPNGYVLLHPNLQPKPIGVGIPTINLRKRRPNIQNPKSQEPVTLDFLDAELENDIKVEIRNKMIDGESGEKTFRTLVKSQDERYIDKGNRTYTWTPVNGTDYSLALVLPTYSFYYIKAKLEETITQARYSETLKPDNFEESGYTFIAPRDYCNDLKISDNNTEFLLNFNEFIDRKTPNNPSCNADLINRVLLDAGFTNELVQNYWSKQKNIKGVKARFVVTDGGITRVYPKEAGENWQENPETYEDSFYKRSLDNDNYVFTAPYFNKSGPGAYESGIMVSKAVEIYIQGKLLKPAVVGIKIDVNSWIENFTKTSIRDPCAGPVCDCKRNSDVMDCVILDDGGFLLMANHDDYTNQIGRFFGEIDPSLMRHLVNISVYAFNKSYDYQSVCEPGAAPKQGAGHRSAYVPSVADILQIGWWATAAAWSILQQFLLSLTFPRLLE
T1 sequence (P54289 957-1103 partner limits assumed): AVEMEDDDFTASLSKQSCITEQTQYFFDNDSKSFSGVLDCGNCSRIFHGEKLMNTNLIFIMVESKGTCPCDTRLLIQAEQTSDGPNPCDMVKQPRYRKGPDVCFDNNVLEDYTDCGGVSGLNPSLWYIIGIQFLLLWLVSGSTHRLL
T2 sequence (Q12809 whole entry): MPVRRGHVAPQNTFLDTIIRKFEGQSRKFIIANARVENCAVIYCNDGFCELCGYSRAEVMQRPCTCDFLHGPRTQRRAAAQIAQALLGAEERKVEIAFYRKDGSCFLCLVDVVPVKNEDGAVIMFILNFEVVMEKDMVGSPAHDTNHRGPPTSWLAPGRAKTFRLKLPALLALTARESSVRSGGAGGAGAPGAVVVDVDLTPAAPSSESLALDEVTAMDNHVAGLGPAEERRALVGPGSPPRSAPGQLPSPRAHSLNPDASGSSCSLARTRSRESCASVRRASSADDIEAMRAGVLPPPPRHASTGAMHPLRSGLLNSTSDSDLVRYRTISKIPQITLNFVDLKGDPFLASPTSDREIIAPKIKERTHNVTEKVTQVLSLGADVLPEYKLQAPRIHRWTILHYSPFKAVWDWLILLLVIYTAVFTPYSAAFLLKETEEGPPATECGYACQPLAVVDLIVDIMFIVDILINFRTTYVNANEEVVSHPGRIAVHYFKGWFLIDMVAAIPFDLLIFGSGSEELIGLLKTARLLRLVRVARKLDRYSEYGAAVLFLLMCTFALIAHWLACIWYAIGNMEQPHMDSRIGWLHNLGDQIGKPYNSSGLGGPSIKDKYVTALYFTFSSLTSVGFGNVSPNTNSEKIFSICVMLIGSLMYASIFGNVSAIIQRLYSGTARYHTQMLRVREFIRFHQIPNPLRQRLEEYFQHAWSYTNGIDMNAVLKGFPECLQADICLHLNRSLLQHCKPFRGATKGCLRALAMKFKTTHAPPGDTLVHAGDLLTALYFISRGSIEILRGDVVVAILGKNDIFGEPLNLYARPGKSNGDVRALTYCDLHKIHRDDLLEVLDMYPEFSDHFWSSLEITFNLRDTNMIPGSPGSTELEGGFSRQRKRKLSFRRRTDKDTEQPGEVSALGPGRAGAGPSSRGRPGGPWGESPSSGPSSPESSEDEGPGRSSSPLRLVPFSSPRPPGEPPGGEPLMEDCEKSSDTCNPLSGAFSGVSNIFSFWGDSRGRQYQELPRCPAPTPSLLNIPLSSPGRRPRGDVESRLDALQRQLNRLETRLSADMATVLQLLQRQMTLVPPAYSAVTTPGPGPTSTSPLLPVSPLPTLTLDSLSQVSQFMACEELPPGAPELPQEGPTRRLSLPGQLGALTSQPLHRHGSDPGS
Description for CaV1.2 (ICaL): as §1, §2, §3, §4, §5
56 the extracellular solution.
as §6, §7, §8, §9, §10, §11, §12, §13, §14, §15, §16, §17, §18, §19, §20, §21, §22, §23, §24, §25, §26, §27, §28, §29

For `CN(C)CCCN1c2ccccc2Sc2ccc(Cl)cc21` [Chlorpromazine], at CaV1.2 channels [1], the “ICaL Pharm Hill coefficient h” value turned out to be 0.88. Further, the “ICaL CiPA Hill coefficient h” value against CaV1.2 channels [2] was 0.93. Further, the “Change in APD90 (in words)” value in data set [3] was “little or no change in APD90”.

The term inhibition denotes the relative decrease from the control value, in per cent. Higher therefore signals a response far below the control. As for `CN1CCN(C2=Nc3cc(Cl)ccc3Nc3ccccc32)CC1` [Clozapine], the values for the inhibition at 3 µM at CaV1.2 (ICaL) and against hERG (IKr) were 59% and 57%, respectively. The “IKr CiPA Hill coefficient h” value at hERG channels [4] (human) is 0.94. The “Change in APD90 (in words)” value in data set [3] is given as “little or no change in APD90”.

One may read the IC50 as the concentration at which inhibition is half-maximal. In the case of `CN(CCOc1ccc(NS(C)(=O)=O)cc1)CCc1ccc(NS(C)(=O)=O)cc1` [Dofetilide], in the data set with hERG, the concentration for half-maximal inhibition (IC50) is […].

Consider `CNCCC(Oc1ccc(C(F)(F)F)cc1)c1ccccc1` (centres unmarked) [Fluoxetine], for which, on CaV1.2 channels [1], the “ICaL Pharm Hill coefficient h” value is 0.94. Moreover, the “ICaL CiPA Hill coefficient h” value at CaV1.2 channels [2] is 0.90. The “Mean ΔAPD90 (SEM)” value in [3] (nominal drug conc 3 μM) is given as “–2 (5) ms”. In data set [3], the “Change in APD90 (in words)” value is reported as “little or no change in APD90”.

With `CN1CCCCC1CCN1c2ccccc2Sc2ccc([S+](C)[O-])cc21` (centres unmarked) [Mesoridazine], the “ICaL Pharm Hill coefficient h” value at CaV1.2 channels [1] came out at 0.76. The “ICaL CiPA Hill coefficient h” value against CaV1.2 channels [2] is recorded as 0.83. Further, the IC50 against CaV1.2 channels [5] came to 4.06 µM; against CaV1.2 channels [6], 3.96 µM. Moreover, the “IKr CiPA Hill coefficient h” value on hERG channels [4] (hERG, CHO cells, CiPA protocol) came to 0.74. Further, at hERG channels [7], the “IKr Pharm Hill coefficient h” value was determined as 1. Moreover, the “Mean ΔAPD90 (SEM)” value in data set [3] (nominal drug conc 0.04 μM) was “–2 (7) ms”. Further, the “Change in APD90 (in words)” value in data set [3] was “little or no change in APD90”.

As to `COC(=O)C1=C(C)NC(C)=C(C(=O)OC)C1c1ccccc1[N+](=O)[O-]` [Nifedipine], the “Mean ΔAPD90 (SEM)” value is recorded as “–5 (6) ms” in [3] (nominal drug conc 0.03 μM) and “–24 (6) ms” in data set [3] (nominal drug conc 0.3 μM).

Turning to `C=C[C@H]1C[N@@]2CC[C@H]1C[C@@H]2[C@@H](O)c1ccnc2ccc(OC)cc12` [Quinidine], in the data set with hERG, the IC50 was […].

As to `COc1ccc(CCN(C)CCCC(C#N)(c2ccc(OC)c(OC)c2)C(C)C)cc1OC` (centres unmarked) [Verapamil], the “Mean ΔAPD90 (SEM)” value in data set [3] (nominal drug conc 0.01 μM) is reported as “–15 (4) ms”; in [3] (nominal drug conc 0.1 μM) it was “–19 (5) ms”. In addition, the “Change in APD90 (in words)” value in [3] is recorded as “substantially shortened APD90”.
